Assay results from patent US10093630B2, “Pyrazole compounds and methods of making and using same” (ABIDE THERAPEUTICS, INC., priority 2014, dated 2018).
Read-outs that look alike come from different tables or passages of the source.

Assays:
Assay in all cases: In vitro competitive activity-based protein profiling (gel-based, FP-Rh or HT-01 probe)
Assay type in all cases: biochemical
ABHD6 = molecular target: T1, ABHD6 (Mus musculus, UniProt Q8R2Y0); conditions: for inhibition at 1 µM: 1 μM inhibitor, read-out: % Inhibition at 1 μM, C = ABHD6; for inhibition at 10 µM: 10 μM inhibitor, read-out: % Inhibition at 10 μM, C = ABHD6; for IC50: mouse brain membrane fraction or cell lysates, 30 min preincubation at 37° C., read-out: Mouse (IC50 value, nM) ABHD6
T1 construct: Proteomes (mouse brain membrane fraction or cell lysates); from tissue; host or cells: mouse brain membrane fraction (or cell lysates, not specified)
T1 sequence (Q8R2Y0 1-336): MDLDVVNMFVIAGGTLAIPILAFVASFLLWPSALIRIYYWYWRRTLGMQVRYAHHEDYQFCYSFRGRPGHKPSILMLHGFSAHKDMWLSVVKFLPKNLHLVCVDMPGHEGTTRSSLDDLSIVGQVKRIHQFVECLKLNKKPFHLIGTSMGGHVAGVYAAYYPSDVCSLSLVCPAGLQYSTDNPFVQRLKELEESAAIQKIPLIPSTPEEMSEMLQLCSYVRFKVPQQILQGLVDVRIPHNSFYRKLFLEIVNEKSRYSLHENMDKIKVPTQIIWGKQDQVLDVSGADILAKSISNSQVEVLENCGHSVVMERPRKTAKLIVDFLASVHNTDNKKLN
Procedure, shortened: (§1)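 Read-out: fluorescent band intensity on SDS-PAGE gels, reporting remaining serine hydrolase activity. Before that, proteome (mouse brain membranes or cell lysates, 1.0 mg/mL) saw a range of inhibitor concentrations for 30 min at 37° C, followed by 30 min probe labelling (FP-Rh or HT-01).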

PLA2G7 = molecular target: T2, PLA2G7 (Mus musculus, UniProt Q60963); conditions: for inhibition at 1 µM: 1 μM inhibitor, read-out: % Inhibition at 1 μM, D = PLA2G7; for inhibition at 10 µM: 10 μM inhibitor, read-out: % Inhibition at 10 μM, D = PLA2G7; for IC50: mouse brain membrane fraction or cell lysates, 30 min preincubation at 37° C.
T2 construct: Proteomes (mouse brain membrane fraction or cell lysates); from tissue; host or cells: mouse brain membrane fraction (or cell lysates, not specified)
T2 sequence (Q60963 22-440): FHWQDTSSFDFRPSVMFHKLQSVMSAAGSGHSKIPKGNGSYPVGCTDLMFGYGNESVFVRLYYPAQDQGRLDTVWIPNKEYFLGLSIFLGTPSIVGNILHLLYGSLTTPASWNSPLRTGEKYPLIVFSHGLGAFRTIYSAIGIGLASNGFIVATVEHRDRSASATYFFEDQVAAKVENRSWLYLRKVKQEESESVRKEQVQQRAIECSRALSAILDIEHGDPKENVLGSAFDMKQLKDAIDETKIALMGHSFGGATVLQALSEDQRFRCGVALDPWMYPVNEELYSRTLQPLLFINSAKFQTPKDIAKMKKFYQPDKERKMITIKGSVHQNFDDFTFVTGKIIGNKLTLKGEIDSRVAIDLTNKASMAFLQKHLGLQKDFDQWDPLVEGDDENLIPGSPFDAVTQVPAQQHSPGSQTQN
Procedure, shortened: as §1

MAGL = molecular target: T3, MAGL (Mus musculus, UniProt O35678); conditions: for inhibition at 1 µM: 1 μM inhibitor; for inhibition at 10 µM: 10 μM inhibitor; for IC50: mouse brain membrane fraction or cell lysates, 30 min preincubation at 37° C., read-out: Mouse (IC50 value, nM) MAGL
T3 construct: Proteomes (mouse brain membrane fraction or cell lysates); from tissue; host or cells: mouse brain membrane fraction (or cell lysates, not specified)
T3 sequence (O35678 1-303): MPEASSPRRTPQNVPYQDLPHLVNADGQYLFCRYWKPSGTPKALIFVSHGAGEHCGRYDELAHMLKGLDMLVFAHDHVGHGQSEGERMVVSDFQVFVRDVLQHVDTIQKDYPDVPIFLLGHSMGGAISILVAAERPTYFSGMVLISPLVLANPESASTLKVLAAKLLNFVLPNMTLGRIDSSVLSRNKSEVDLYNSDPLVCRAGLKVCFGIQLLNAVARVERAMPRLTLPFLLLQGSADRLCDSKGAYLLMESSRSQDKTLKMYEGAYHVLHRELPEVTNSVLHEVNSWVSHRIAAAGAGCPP
Procedure, shortened: as §1

FAAH = molecular target: T4, FAAH (Mus musculus, UniProt O08914); conditions: for inhibition at 1 µM: 1 μM inhibitor, read-out: % Inhibition at 1 μM, B = FAAH; for inhibition at 10 µM: 10 μM inhibitor, read-out: % Inhibition at 10 μM, B = FAAH; for IC50: mouse brain membrane fraction or cell lysates, 30 min preincubation at 37° C., read-out: Mouse (IC50 value, nM) FAAH
T4 construct: Proteomes (mouse brain membrane fraction or cell lysates); from tissue; host or cells: mouse brain membrane fraction (or cell lysates, not specified)
T4 sequence (O08914 1-579): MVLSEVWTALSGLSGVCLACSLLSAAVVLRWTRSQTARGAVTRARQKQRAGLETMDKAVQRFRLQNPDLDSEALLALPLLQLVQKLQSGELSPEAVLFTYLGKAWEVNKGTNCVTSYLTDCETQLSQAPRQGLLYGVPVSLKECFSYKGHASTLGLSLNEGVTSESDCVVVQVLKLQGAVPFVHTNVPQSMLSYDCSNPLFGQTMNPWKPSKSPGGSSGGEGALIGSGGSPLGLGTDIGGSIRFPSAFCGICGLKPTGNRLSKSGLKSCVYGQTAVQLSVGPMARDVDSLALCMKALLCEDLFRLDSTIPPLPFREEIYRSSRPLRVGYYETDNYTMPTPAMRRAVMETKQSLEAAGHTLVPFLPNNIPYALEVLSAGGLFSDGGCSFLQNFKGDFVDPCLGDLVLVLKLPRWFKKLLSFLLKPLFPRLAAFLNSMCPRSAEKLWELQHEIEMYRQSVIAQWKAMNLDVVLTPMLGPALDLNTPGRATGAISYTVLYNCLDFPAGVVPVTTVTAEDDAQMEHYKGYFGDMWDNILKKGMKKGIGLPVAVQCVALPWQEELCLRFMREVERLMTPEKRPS
Procedure, shortened: as §1

Structure (SMILES) | inhibition at 1 µM (ABHD6) | inhibition at 10 µM (ABHD6) | IC50 (ABHD6) | inhibition at 1 µM (PLA2G7) | inhibition at 10 µM (PLA2G7) | IC50 (PLA2G7) | inhibition at 1 µM (MAGL) | inhibition at 10 µM (MAGL) | IC50 (MAGL) | inhibition at 1 µM (FAAH) | inhibition at 10 µM (FAAH) | IC50 (FAAH) | inhibition at 1 µM (ABHD6; gel-based competitive ABPP) | inhibition at 1 µM (PLA2G7; gel-based competitive ABPP) | inhibition at 1 µM (MAGL; gel-based competitive ABPP) | inhibition at 1 µM (FAAH; gel-based competitive ABPP)
Cc1cccc(CN2CCN(C(=O)n3cc(C(F)(F)F)cn3)CC2)c1 [Example 270, (4-(3-Methylbenzyl)piperazin-1-yl)(4-(trifluoromethyl)-1H-pyrazol-1-yl)methanone] | – | – | – | – | – | – | – | – | – | – | – | – | > 75% | > 75% | > 75% | > 75%
O=C(N1CCCCC1)n1cc(C(F)(F)F)cn1 [Example 200, Piperidin-1-yl(4-(trifluoromethyl)-1H-pyrazol-1-yl)methanone] | > 75% | > 75% | 100 to 1000 nM | > 75% | > 75% | 100 to 1000 nM | > 75% | > 75% | > 1000 nM | > 75% | > 75% | 100 to 1000 nM | – | – | – | –
O=C(c1cnn(C(=O)N2CCN(Cc3cccnc3)CC2)c1)N1CCOCC1 [Example 53, (4-(Morpholine-4-carbonyl)-1H-pyrazol-1-yl)(4-(pyridin-3-ylmethyl)piperazin-1-yl)methanone] | < 25% | > 75% | – | < 25% | > 75% | – | – | 25 to 75% | – | – | < 25% | – | – | – | – | –
O=C(N1CCN(C(c2ccc(Cl)cc2)c2ccc(Cl)cc2)CC1)n1cc(-c2ccc(C(F)(F)F)cc2)cn1 [Example 124, (4-(Bis(4-chlorophenyl)methyl)piperazin-1-yl)(4-(4-(trifluoromethyl)phenyl)-1H-pyrazol-1-yl)methanone] | > 75% | > 75% | – | 25 to 75% | > 75% | – | – | 25 to 75% | – | – | < 25% | – | – | – | – | –
Cc1cc(N2CCOCC2)ccc1CN1CCN(C(=O)n2cc(Cl)cn2)CC1 [Example 218, (4-Chloro-1H-pyrazol-1-yl)(4-(2-methyl-4-morpholinobenzyl)piperazin-1-yl)methanone] | > 75% | – | 100 to 1000 nM | > 75% | – | 100 to 1000 nM | > 75% | – | < 100 nM | > 75% | – | 100 to 1000 nM | – | – | – | –
O=C(N1CCN(Cc2cccc(N3CCCC3)c2)CC1)n1cc(C(F)(F)F)cn1 [Example 273, (4-(3-(Pyrrolidin-1-yl)benzyl)piperazin-1-yl)(4-(trifluoromethyl)-1H-pyrazol-1-yl)methanone] | – | – | < 100 nM | – | – | < 100 nM | – | – | < 100 nM | – | – | < 100 nM | > 75% | > 75% | > 75% | > 75%
CCN(Cc1cccc(C)c1)C(=O)n1cc(Cl)cn1 [Example 135, 4-Chloro-N-ethyl-N-(3-methylbenzyl)-1H-pyrazole-1-carboxamide] | < 25% | > 75% | > 1000 nM | < 25% | < 25% | – | 25 to 75% | > 75% | > 1000 nM | > 75% | > 75% | 100 to 1000 nM | – | – | – | –
O=C(N1CCN(Cc2ccc(CN3CCOCC3)cc2)CC1)n1cc(Cl)cn1 [Example 214, (4-Chloro-1H-pyrazol-1-yl)(4-(4-(morpholinomethyl)benzyl)piperazin-1-yl)methanone] | > 75% | – | – | > 75% | – | – | > 75% | – | – | > 75% | – | – | – | – | – | –

The remaining lines, values ahead:

inhibition at 1 µM (ABHD6) | inhibition at 10 µM (ABHD6) | IC50 (ABHD6) | inhibition at 1 µM (PLA2G7) | inhibition at 10 µM (PLA2G7) | IC50 (PLA2G7) | inhibition at 1 µM (MAGL) | inhibition at 10 µM (MAGL) | IC50 (MAGL) | inhibition at 1 µM (FAAH) | inhibition at 10 µM (FAAH) | IC50 (FAAH) | inhibition at 1 µM (ABHD6; gel-based competitive ABPP) | inhibition at 1 µM (PLA2G7; gel-based competitive ABPP) | inhibition at 1 µM (MAGL; gel-based competitive ABPP) | inhibition at 1 µM (FAAH; gel-based competitive ABPP) | Structure (SMILES)
> 75% | > 75% | > 1000 nM | < 25% | > 75% | > 1000 nM | > 75% | > 75% | 100 to 1000 nM | > 75% | > 75% | 100 to 1000 nM | – | – | – | – | N#Cc1cnn(C(=O)N2CCCN(C(=O)c3ccccc3)CC2)c1 [Example 180, 1-(4-Benzoyl-1,4-diazepane-1-carbonyl)-1H-pyrazole-4-carbonitrile]
> 75% | > 75% | – | > 75% | > 75% | – | > 75% | > 75% | – | > 75% | > 75% | – | – | – | – | – | N#Cc1cnn(C(=O)N2CCN(Cc3ccc(Oc4ccccc4)cc3)CC2)c1 [Example 18, 1-(4-(4-Phenoxybenzyl)piperazine-1-carbonyl)-1H-pyrazole-4-carbonitrile]
< 25% | > 75% | – | < 25% | > 75% | – | – | < 25% | – | – | > 75% | – | – | – | – | – | O=C(c1cnn(C(=O)N2CCN(Cc3ccccn3)CC2)c1)N1CCCC1 [Example 81, (4-(Pyridin-2-ylmethyl)piperazin-1-yl)(4-(pyrrolidine-1-carbonyl)-1H-pyrazol-1-yl)methanone]
> 75% | > 75% | 100 to 1000 nM | < 25% | > 75% | – | > 75% | > 75% | 100 to 1000 nM | > 75% | > 75% | < 100 nM | – | – | – | – | Cc1cc(-c2ccccc2)ccc1CN1CCN(C(=O)n2cc(C(=O)N3CCC3)cn2)CC1 [Example 93, Azetidin-1-yl(1-(4-((3-methyl-[1,1′-biphenyl]-4-yl)methyl)piperazine-1-carbonyl)-1H-pyrazol-4-yl)methanone]
< 25% | > 75% | – | > 75% | > 75% | – | < 25% | < 25% | – | < 25% | 25 to 75% | – | – | – | – | – | O=C(c1cnn(C(=O)N2CCN(Cc3ccncn3)CC2)c1)N1CCCCC1 [Example 73, Piperidin-1-yl(1-(4-(pyrimidin-4-ylmethyl)piperazine-1-carbonyl)-1H-pyrazol-4-yl)methanone]
25 to 75% | > 75% | – | < 25% | > 75% | – | – | < 25% | – | – | 25 to 75% | – | – | – | – | – | O=C(c1cnn(C(=O)N2CCN(Cc3cccnc3)CC2)c1)N1CCCC1 [Example 80, (4-(Pyridin-3-ylmethyl)piperazin-1-yl)(4-(pyrrolidine-1-carbonyl)-1H-pyrazol-1-yl)methanone]
